{"source": "patent US20050282786A1", "about": "“Method for reducing c-rective protein levels with non-antibacterial tetracycline formulations” (priority 2002, published 2005)", "key": {"[1]": {"conditions": "250 mg every six hours over a twenty-four hour period; cited from earlier work"}, "C-reactive protein (CRP)": {"system": "C-reactive protein (CRP)", "experiment": "Prospective randomized six-month study of low-dose doxycycline versus placebo: C-reactive protein levels in patients after acute coronary syndrome", "type": "in vivo, human", "conditions": "for 6-Month CRP level: after six months of therapy, P<0.05 vs baseline; for 6-Month CRP level / Baseline CRP level: mean ± S.E.M.; for Reduction Due To Treatment (CRP): six months vs baseline; for Baseline CRP level / Baseline CRP: study entry; for Six Month CRP: six months", "procedure": "A prospective, randomized study was conducted over six (6) months to investigate the effectiveness of low-dose doxycycline (LDD) versus placebo, in the prevention of subsequent plaque rupture events in patients enrolled after an initial acute coronary syndrome.\nBiochemical markers of inflammation were assessed at study entry and after six (6) months of therapy in a subset of patients. A total of thirty (30) patients completed the study of whom thirteen (13) were randomized to placebo and seventeen (17) to LDD. There were no significant differences in age, male gender, hypertension, diabetes, smoking, previous cardiac history, extent of coronary disease, presentation with acute myocardial infarction or unstable angina, or percutaneous coronary intervention between LDD and placebo treated patients.\nAt six months clinical follow-up, there was no difference in the composite endpoint of cardiovascular death, myocardial infarction or troponin-positive unstable angina in LDD compared to placebo treated patients. […] In placebo-treated patients, CRP was 5.2 μg/ml at study entry and 4.9 μg/ml at six months (P=not significant (n.s.)).\nPatients with higher baseline CRP levels were reduced by 58% from 7.2 μg/ml to 3.0 μg/ml (P<0.001). In placebo-treated patients with higher baseline CRP, CRP levels were decreased by 23% (7.1 μg/ml to 5.5 μg/ml)."}, "[2]": {"experiment": "CMT-3 serum levels in humans", "type": "in vivo, human", "conditions": "dose of about 10 to about 20 mg/day", "procedure": "Non-antibacterial tetracycline compounds can be used in higher amounts than antibacterial tetracyclines, while avoiding the indiscriminate killing of bacteria, and the emergence of resistant bacteria. For example, 6-demethyl-6-deoxy-4-dedimethylaminotetracycline (CMT-3) may be administered in doses of about 10 to about 200 mg/day, or in amounts that result in serum levels in humans of about 1.0 μg/ml to about 10 μg/ml. For example, a dose of about 10 to about 20 mg/day produces serum levels in humans of about 1.0 μg/ml."}, "[3]": {"conditions": "single dose of two 100 mg tablets, adult human; cited from earlier work"}, "[4]": {"conditions": "all LDD patients (n = 17), listed as Low-Dose Doxycycline"}, "[5]": {"conditions": "patients with higher CRP (>5 μg/ml)"}, "[6]": {"conditions": "patients with lower baseline CRP (≦5 μg/ml)"}}, "note": "“And” between values parts separate entries of the source, which are not always exact repeats. Equal values may be shown once. Where a name gives a salt, the structure may show the parent alone.", "data": [{"smiles": "CN(C)[C@@H]1C(O)=C(C(N)=O)C(=O)[C@@]2(O)C(O)=C3C(=O)c4c(O)cccc4[C@@](C)(O)[C@H]3C[C@@H]12", "note": "[tetracycline HCl]", "values": [{"measurement": "peak plasma concentration", "setting": "[1]", "value": "approximately 3 μg/ml"}]}, {"smiles": "C[C@H]1c2cccc(O)c2C(=O)C2=C(O)[C@]3(O)C(=O)C(C(N)=O)=C(O)[C@@H](N(C)C)[C@@H]3[C@@H](O)[C@@H]21", "note": "[LDD, doxycycline]", "values": [{"measurement": "6-Month CRP level", "setting": "C-reactive protein (CRP); all LDD patients (n = 17)", "value": 2.6, "unit": "µg/mL"}, {"measurement": "6-Month CRP level", "setting": "C-reactive protein (CRP); [4]", "value": "2.6 ± 0.4", "unit": "µg/mL"}, {"measurement": "Reduction Due To Treatment (CRP)", "setting": "C-reactive protein (CRP); all LDD patients (n = 17)", "value": 46, "unit": "%"}, {"measurement": "Reduction Due To Treatment (CRP)", "setting": "C-reactive protein (CRP); [4]", "value": 45, "unit": "%"}, {"measurement": "Baseline CRP level", "setting": "C-reactive protein (CRP); all LDD patients (n = 17)", "value": 4.8, "unit": "µg/mL"}, {"measurement": "Baseline CRP level", "setting": "C-reactive protein (CRP); [4]", "value": "4.8 ± 0.6", "unit": "µg/mL"}, {"measurement": "Reduction Due To Treatment (CRP)", "setting": "C-reactive protein (CRP); [5]", "value": 58, "unit": "%"}, {"measurement": "Six Month CRP", "setting": "C-reactive protein (CRP); patients with higher CRP (>5 μg/ml), P<0.001 vs baseline", "value": "3.0 μg/ml and 3.0 ± 0.7^a μg/ml"}, {"measurement": "Baseline CRP", "setting": "C-reactive protein (CRP); [5]", "value": "7.2 µg/mL and 7.2 ± 0.6 µg/mL"}, {"measurement": "Reduction Due To Treatment (CRP)", "setting": "C-reactive protein (CRP); [6]", "value": 23, "unit": "%"}, {"measurement": "Six Month CRP", "setting": "C-reactive protein (CRP); patients with lower baseline CRP (≦5 μg/ml), n.s. vs baseline", "value": "2.3 μg/ml and 2.3 ± 0.5^b μg/ml"}, {"measurement": "Baseline CRP", "setting": "C-reactive protein (CRP); [6]", "value": "3.0 µg/mL and 3.0 ± 0.4 µg/mL"}]}, {"smiles": "NC(=O)C1=C(O)CC2CC3Cc4cccc(O)c4C(=O)C3=C(O)C2(O)C1=O", "note": "(stereo not drawn) [CMT-3, 4-dedimethylaminosancycline]", "values": [{"measurement": "serum levels in humans", "setting": "[2]", "value": "about 1.0 μg/ml"}]}, {"smiles": "CN(C)c1ccc(O)c2c1C[C@H]1C[C@H]3[C@H](N(C)C)C(O)=C(C(N)=O)C(=O)[C@@]3(O)C(O)=C1C2=O", "note": "[minocycline HCl]", "values": [{"measurement": "minocycline serum level, average", "setting": "[3]", "value": 2.24, "unit": "µg/mL"}]}]}
